Assays:
BT474 xenograft = assay: Tumour growth inhibition, BT474 xenograft model; assay type: in vivo, mouse
Method: BT474 is an estrogen receptor positive breast tumour cell lines with elevated Her2 expression and carries a mutation in the PIK3CA gene (K111N). Female Swiss athymic nude mice (swiss nu/nu-AZUK) were transplanted subcutaneously with human epithelial breast ductal carcinoma cell line BT474c (derived in AZ from BT474-ATCC HTB-20) tumours passaged in mice. Mice were implanted with 0.36 mg 60 day oestrogen pellet (Innovative Research of America) 24 hours prior to cell implantation. 5×10^6 cells in 50% matrigel (BD Bioscience) were injected s.c. on the left flank of the animals.
Animals were randomised into groups of 10-15 when tumours reached a volume of ˜200-300 mm^3 and treatment commenced. Animals were dosed for 3-4 weeks by peroral route, with compound in a suitable vehicle at defined doses and schedules. Tumours were measured two-three times weekly by caliper and volume of tumours calculated using elliptical formula (pi/6×width×width×length).

MDAMB453 = assay: Cell proliferation assay (MTS); assay type: cell-based, human
Method: (§1) The sensitivity of a panel of human cancer cell lines to the effects of compounds was determined in a standard proliferation assay. Cell lines were sourced through the AstraZeneca Cell Bank.
(§2) Cells were plated in 96 well plates at densities of 1000-6000 cells per well in RPMI media containing 10% FBS. After incubation at 37° C. for 16 hours, various concentrations of compound were added to the assay plates. After incubation for an additional 72 h, the viable cells were determined by the addition of MTS reagent (Promega #3582) to each well for 2 h. MTS is a tetrazolium salt that is bioreduced by metabolically active cells in the presence of an electron coupling reagent to formazan. The formazan product was then quantitated by absorbance at 490 nm, as an indicator of the relative number of live cells. In order to determine the GI50 (concentration at which growth of cells was inhibited by 50%) the relative number of cells present at the time of drug addition was determined by comparison with the MTS readout before the drug was added, and this value was subtracted from the 72 hr value of untreated cells as a measure of cell growth during the assay.

CCK81 = assay: Cell proliferation assay (MTS); assay type: cell-based, human
Method: (§3) The sensitivity of a panel of human cancer cell lines to the effects of compounds was determined in a standard proliferation assay.
as §2

PANC0203 = assay: Cell proliferation assay (MTS); assay type: cell-based, human
Method: as §3
(§4) Cells were plated in 96 well plates at densities of 1000-6000 cells per well in RPMI media containing 10% FBS. After incubation at 37° C. for 16 hours, various concentrations of compound were added to the assay plates. After incubation for an additional 72 h, the viable cells were determined by the addition of MTS reagent (Promega #3582) to each well for 2 h. […] The formazan product was then quantitated by absorbance at 490 nm, as an indicator of the relative number of live cells. In order to determine the GI50 (concentration at which growth of cells was inhibited by 50%) the relative number of cells present at the time of drug addition was determined by comparison with the MTS readout before the drug was added, and this value was subtracted from the 72 hr value of untreated cells as a measure of cell growth during the assay.

BFTC905 = assay: Cell proliferation assay (MTS); assay type: cell-based, human
Method: as §3, §4

REH = assay: Cell proliferation assay (MTS); assay type: cell-based, human
Method: as §3, §4

SUM52PE = assay: Cell proliferation assay (MTS); assay type: cell-based, human
Method: as §3, §2

OVCAR3 = assay: Cell proliferation assay (MTS); assay type: cell-based, human
Method: as §3, §2

C99 = assay: Cell proliferation assay (MTS); assay type: cell-based, human
Method: as §3, §2

AGS = assay: Cell proliferation assay (MTS); assay type: cell-based, human
Method: as §3, §2

MKN1 = assay: Cell proliferation assay (MTS); assay type: cell-based, human
Method: as §3, §2

SNU368 = assay: Cell proliferation assay (MTS); assay type: cell-based, human
Method: as §3, §2

SNU484 = assay: Cell proliferation assay (MTS); assay type: cell-based, human
Method: as §3, §2

HPAC = assay: Cell proliferation assay (MTS); assay type: cell-based, human
Method: as §3, §2

HS766T = assay: Cell proliferation assay (MTS); assay type: cell-based, human
Method: as §1, §2

OE19 = assay: Cell proliferation assay (MTS); assay type: cell-based, human
Method: as §3, §4

SW1710 = assay: Cell proliferation assay (MTS); assay type: cell-based, human
Method: as §3, §4

SNU449 = assay: Cell proliferation assay (MTS); assay type: cell-based, human
Method: as §3, §4

HEP3B = assay: Cell proliferation assay (MTS); assay type: cell-based, human
Method: as §3, §2

H1793 = assay: Cell proliferation assay (MTS); assay type: cell-based, human
Method: as §3, §2

EBC1 = assay: Cell proliferation assay (MTS); assay type: cell-based, human
Method: as §3, §4

MGHU3 = assay: Cell proliferation assay (MTS); assay type: cell-based, human
Method: as §1, §2

HUPT3 = assay: Cell proliferation assay (MTS); assay type: cell-based, human
Method: as §1, §2

SNU668 = assay: Cell proliferation assay (MTS); assay type: cell-based, human
Method: as §3, §4

SNU886 = assay: Cell proliferation assay (MTS); assay type: cell-based, human
Method: as §3, §4

HUH7 = assay: Cell proliferation assay (MTS); assay type: cell-based, human
Method: as §3, §2

GTL16 = assay: Cell proliferation assay (MTS); assay type: cell-based, human
Method: as §3, §4

H460DNP53 = assay: Cell proliferation assay (MTS); assay type: cell-based, human
Method: as §3, §2

SW780 = assay: Cell proliferation assay (MTS); assay type: cell-based, human
Method: as §3, §2

NUGC3 = assay: Cell proliferation assay (MTS); assay type: cell-based, human
Method: as §1, §2

CALU6 = assay: Cell proliferation assay (MTS); assay type: cell-based, human
Method: as §1, §2

1A6 = assay: Cell proliferation assay (MTS); assay type: cell-based, human
Method: as §3, §2

H460 = assay: Cell proliferation assay (MTS); assay type: cell-based, human
Method: as §3, §2

H526 = assay: Cell proliferation assay (MTS); assay type: cell-based, human
Method: as §3, §2

HEPG2 = assay: Cell proliferation assay (MTS); assay type: cell-based, human
Method: as §1, §2

IM9 = assay: Cell proliferation assay (MTS); assay type: cell-based, human
Method: as §1, §2

RERFLCAI = assay: Cell proliferation assay (MTS); assay type: cell-based, human
Method: as §3, §2

[1] = Homo sapiens, Pancreas, PIK3CA WT
[2] = Homo sapiens, Bladder, PIK3CA WT

SMILES: CCn1nc(C2CCN(C(=O)CCO)CC2)nc1-c1cnc(N)c(-c2nnc(C(C)(C)C)o2)n1 [Example 3, 1-(4-(5-(5-amino-6-(5-tert-butyl-1,3,4-oxadiazol-2-yl)pyrazin-2-yl)-1-ethyl-1H-1,2,4-triazol-3-yl)piperidin-1-yl)-3-hydroxypropan-1-one]
- tumour growth (BT474 xenograft; Example 3 alone 25 mg/kg BID every day, FIG. 11): partially inhibited growth
- tumour growth (BT474 xenograft; Example 3 alone 25 mg/kg BID, 2 days on/5 days off, vs vehicle, FIG. 10): partially inhibited tumour growth
- tumour growth (BT474 xenograft; Example 3 alone 50 mg/kg BID, 2 days on/5 days off, vs vehicle, FIG. 9): partially inhibited tumour growth
- Category (MDAMB453): Sensitive (sensitive (GI50<=1.0 μM))
- GI50 (MDAMB453; Homo sapiens, MDA-MB-453, Breast, PIK3CA MUT): 0.456 µM
- Category (CCK81): Sensitive (sensitive (GI50<=1.0 μM))
- GI50 (CCK81; Homo sapiens, Colon, PIK3CA MUT): 0.803 µM
- Category (PANC0203): Sensitive (sensitive (GI50<=1.0 μM))
- GI50 (PANC0203; Homo sapiens, Panc 02.03, Pancreas, PIK3CA WT): 0.963 µM
- Category (BFTC905): Sensitive (sensitive (GI50<=1.0 μM))
- GI50 (BFTC905; Homo sapiens, BFTC-905, Bladder, PIK3CA WT): 0.966 µM
- Category (REH): Resistant (resistant (GI50>1.0 μM))
- GI50 (REH; Homo sapiens, Blood/lymph, PIK3CA WT): 1.05 µM
- Category (SUM52PE): Resistant (resistant (GI50>1.0 μM))
- GI50 (SUM52PE; Homo sapiens, Breast, PIK3CA WT): 1.15 µM
- Category (OVCAR3): Resistant (resistant (GI50>1.0 μM))
- GI50 (OVCAR3; Homo sapiens, OVCAR-3, Ovary, PIK3CA WT): 1.18 µM
- Category (C99): Resistant (resistant (GI50>1.0 μM))
- GI50 (C99; Homo sapiens, Colon, PIK3CA WT): 1.22 µM
- Category (AGS): Resistant (resistant (GI50>1.0 μM))
- GI50 (AGS; Homo sapiens, Stomach, PIK3CA MUT): 1.41 µM
- Category (MKN1): Resistant (resistant (GI50>1.0 μM))
- GI50 (MKN1; Homo sapiens, MKN-1, Stomach, PIK3CA MUT): 1.58 µM
- Category (SNU368): Resistant (resistant (GI50>1.0 μM))
- GI50 (SNU368; Homo sapiens, Liver, PIK3CA WT): 1.6 µM
- Category (SNU484): Resistant (resistant (GI50>1.0 μM))
- GI50 (SNU484; Homo sapiens, SNU-484, Stomach, PIK3CA WT): 1.79 µM
- Category (HPAC): Resistant (resistant (GI50>1.0 μM))
- GI50 (HPAC; [1]): 2.16 µM
- Category (HS766T): Resistant (resistant (GI50>1.0 μM))
- GI50 (HS766T; [1]): 3.47 µM
- Category (OE19): Resistant (resistant (GI50>1.0 μM))
- GI50 (OE19; Homo sapiens, Esophagus, PIK3CA WT): 5.13 µM
- Category (SW1710): Resistant (resistant (GI50>1.0 μM))
- GI50 (SW1710; [2]): 5.34 µM
- Category (SNU449): Resistant (resistant (GI50>1.0 μM))
- GI50 (SNU449; Homo sapiens, SNU-449, Liver, PIK3CA WT): 5.41 µM
- Category (HEP3B): Resistant (resistant (GI50>1.0 μM))
- GI50 (HEP3B; Homo sapiens, Liver, PIK3CA WT): 6.69 µM
- Category (H1793): Resistant (resistant (GI50>1.0 μM))
- GI50 (H1793; Homo sapiens, NCI-H1793, Lung, PIK3CA WT): 7.33 µM
- Category (EBC1): Resistant (resistant (GI50>1.0 μM))
- GI50 (EBC1; Homo sapiens, EBC-1, Lung, PIK3CA WT): 8.57 µM
- Category (MGHU3): Resistant (resistant (GI50>1.0 μM))
- GI50 (MGHU3; [2]): 11.5 µM
- Category (HUPT3): Resistant (resistant (GI50>1.0 μM))
- GI50 (HUPT3; Homo sapiens, HuP-T3, Pancreas, PIK3CA WT): 13.4 µM
- Category (SNU668): Resistant (resistant (GI50>1.0 μM))
- GI50 (SNU668; Homo sapiens, Stomach, PIK3CA WT): 15.5 µM
- Category (SNU886): Resistant (resistant (GI50>1.0 μM))
- GI50 (SNU886; Homo sapiens, SNU-886, Liver, PIK3CA WT): 15.6 µM
- Category (HUH7): Resistant (resistant (GI50>1.0 μM))
- GI50 (HUH7; Homo sapiens, Huh-7, Liver, PIK3CA WT): 16 µM
- Category (GTL16): Resistant (resistant (GI50>1.0 μM))
- GI50 (GTL16; Homo sapiens, GTL 16, Stomach, PIK3CA WT): 17.4 µM
- Category (H460DNP53): Resistant (resistant (GI50>1.0 μM))
- GI50 (H460DNP53; Homo sapiens, Lung, PIK3CA WT): 18 µM
- Category (SW780): Resistant (resistant (GI50>1.0 μM))
- GI50 (SW780; [2]): 19.2 µM
- Category (NUGC3): Resistant (resistant (GI50>1.0 μM))
- GI50 (NUGC3; Homo sapiens, NUGC-3, Stomach, PIK3CA WT): 24.2 µM
- Category (CALU6): Resistant (resistant (GI50>1.0 μM))
- GI50 (CALU6; Homo sapiens, Calu-6, Lung, PIK3CA WT): 26.2 µM
- Category (1A6): Resistant (resistant (GI50>1.0 μM))
- GI50 (1A6; [2]): 30 µM
- Category (H460): Resistant (resistant (GI50>1.0 μM))
- GI50 (H460; Homo sapiens, NCI-H460, Lung, PIK3CA MUT): 30 µM
- Category (H526): Resistant (resistant (GI50>1.0 μM))
- GI50 (H526; Homo sapiens, NCI-H526, Lung, PIK3CA WT): 30 µM
- Category (HEPG2): Resistant (resistant (GI50>1.0 μM))
- GI50 (HEPG2; Homo sapiens, Liver, PIK3CA WT): 30 µM
- Category (IM9): Resistant (resistant (GI50>1.0 μM))
- GI50 (IM9; Homo sapiens, IM-9, Blood/lymph, PIK3CA WT): 30 µM
- GI50 (RERFLCAI; Homo sapiens, Lung, PIK3CA WT): 30 µM
- Category (RERFLCAI; RERFLCAI): Resistant (resistant (GI50>1.0 μM))

From patent US9156831B2, “Chemical compounds” (ASTRAZENECA AB, priority 2013, dated 2015)
